Reference: patent publication US4338433A, “Moranoline derivatives and process for preparation thereof” (Nippon Shinyaku Co. Ltd., priority 1979, dated 1982)

Key:
blood sugar levels = experiment: Effect of controlling increase of blood sugar levels in sucrose-loaded rats; format: in vivo, rats of the SD series; conditions: Rattus norvegicus, po, 3 h; 2 g/Kg sucrose and 5 mg/Kg test compound orally; ΔAUC over 180 minutes; male SD rats; read-out: Blood Level Increase Inhibition Ratio (%)
Description: [Effect of Controlling Increase of Blood Sugar Levels]
Five-week-old male rats of the SD series are divided into groups, each consisting of 4 rats, and 2 g/Kg of sucrose and 5 mg/Kg of the test compound are orally administered. Blood is collected from the tail veins at predetermined intervals over a period of 180 minutes from the point of administration and the blood level values are measured. The area (ΔAUC) below the time-blood level increase curve is determined. The blood level increase inhibition ratio of the test compound is calculated from the basal value obtained in the group to which water alone has been administered and the control value obtained in the group to which sucrose alone has been administered according to the following formula: [formula]

[1] = target: T1, α-1,4-glucanglucohydrolase (Rhizopus arrhizus, UniProt P07683); experiment: Decomposition of the substance by α-1,4-glucanglucohydrolase (glucose release); format: biochemical
T1 sequence (P07683 26-604): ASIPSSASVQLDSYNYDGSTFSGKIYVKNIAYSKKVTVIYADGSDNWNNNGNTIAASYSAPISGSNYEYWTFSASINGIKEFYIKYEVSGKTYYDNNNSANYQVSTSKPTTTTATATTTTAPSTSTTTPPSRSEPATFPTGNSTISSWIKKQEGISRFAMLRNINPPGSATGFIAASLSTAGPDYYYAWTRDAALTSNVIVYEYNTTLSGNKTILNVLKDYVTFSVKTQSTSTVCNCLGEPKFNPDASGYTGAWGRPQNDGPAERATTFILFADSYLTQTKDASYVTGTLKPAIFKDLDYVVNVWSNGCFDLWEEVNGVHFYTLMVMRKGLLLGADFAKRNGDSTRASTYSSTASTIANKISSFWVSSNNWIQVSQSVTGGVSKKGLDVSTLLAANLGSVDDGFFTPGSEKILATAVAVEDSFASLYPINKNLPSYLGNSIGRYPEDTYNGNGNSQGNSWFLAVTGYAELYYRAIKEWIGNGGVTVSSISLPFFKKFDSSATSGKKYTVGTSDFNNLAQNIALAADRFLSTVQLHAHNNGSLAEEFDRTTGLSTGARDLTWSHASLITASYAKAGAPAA
Source text: Practically, reactions of the respective stages are advanced on a mixture of compounds differing in the glucose number (m). Accordingly, in order to accumulate intended G-MR in the liquid reaction mixture, it is indispensable that rate constants should be sufficiently high but the rate constant k1 should be sufficiently low. FIG. 4 clarifies this point. FIG. 4 will now be explained. A predetermined amount of N-methyloligoglycosylmoranoline is adsorbed on 1 g of Dowex 50W×2 (H^+) in an Erlenmeyer flask having a capacity of 125 ml, and they are suspended in 50 ml of distilled water and 10 mg of α-1,4-glucanglucohydrolase is added to the suspension. Incubation is carried out at 40° C., and 500 μl of the liquid is sampled at predetermined intervals and the amount of glucose is determined. When maltose is used as the substrate, it is mixed with 1 g of Dowex 50W×2 (H^+) and in this state, incubation is carried out at 40° C.
1 ml of 0.3 N Ba(OH)2 and 1 ml of 5% ZnSO4 are added to 500 μl of the reaction mixture liquid and centifugal separation is carried out under a load of 2000 g for 10 minutes. 30 μl of the supernatant is taken and 3 ml of a commercially available glucose color reagent (manufactured by Boehunger Mannheim Co.; new blood sugar test) is added to the sampled supernatant. The mixture is sufficiently stirred and allowed to stand at room temperature for 35 minutes and the absorbance at 420 nm is measured. Separately, a glucose reference reagent (9.1 mg/dl) is similarly treated and the absorbance at 420 nm is measured. Based on these measurements, the amount of glucose formed in the reaction mixture liquid is determined.
About 22 units/mg of α-1,4-glucanglucohydrolase (crystal) derived from Rhizopus niveus (supplied by Seikagaku Kogyo K.K.)
The reaction time is plotted on the abscissa and the ratio of decomposition based on complete decomposition of glucose is plotted on the ordinate. […] After determination of the amount of glucose, the reaction liquid is filtered and the ion exchange resin (Dowex 50W×2) is collected, washed with water sufficiently and eluted with 0.5 N aqueous ammonia. The eluate is concentrated under reduced pressure and dried to the solid. The solid is dissolved in distilled water and subjected to high speed liquid chromatography (Model ALC/GPC-244 supplied by Waters Co., μ-Bondapak NH2 column, acetonitrile/water=70/30, 1.5 cc/min), and the reaction product is identified by a chromatopac Model C-R1A supplied by Shimadzu Seisakusho K. K. The ratios of formation of N-methylmoranoline are […] in case of 4-(α-D-glucosyl)-N-methylmoranoline, 4-(α-D-amltosyl)-N-methylmoranoline, 4-(α-D-maltotriosyl)-N-methylmoranoline and 4-(α-D-maltotetraosyl)-N-methylmoranoline, respectively. […]

[2] = target: T2, α-1,4-glucanglucohydrolase (glucoamylase) (Rhizopus arrhizus, UniProt P07683); experiment: Inhibition of α-1,4-glucanglucohydrolase (glucoamylase), soluble starch substrate; format: biochemical; conditions: read-out: percent inhibition at parenthesized concentration; for inhibition at 200 µg/mL: at 200 μg/ml (printed >200 μg/ml)
T2 sequence (P07683 26-604): T1 sequence (P07683 26-604)
Description: Moranoline, N-lower-alkylmoranolines, oligoglycosylmoranolines and N-lower-alkyloligoglucosylmoranolines inhibit the activity of α-1,4-glucanglucohydrolase. The inhibition is determined according to the following method.
Glucoamylase (crystal) derived from Rhizopus nivens (supplied by Seikagaku Kogyo K. K.) is dissolved in distilled water so that the concentration is 50 μg/ml and the enzyme is used in the form of the so obtained solution.
Soluble starch is dissolved in a buffer solution at a high temperature so that the concentration is 1.4%, and the solution is cooled to room temperature and used.
0.1 M phosphate buffer solution (pH=5.7)
The starting liquid is incubated at 40° C. for 10 minutes, and 1 ml of a 0.3 N solution of Ba(OH)2 and 1 ml of a 5% solution of ZnSO4 are added. Centifugal separation is conducted under a load of 2000×g for 10 minutes, and 30 μl of the supernatant is sampled and 3 ml of a glucose color reagent (supplied by Boelunger Mannheim Co.; new blood sugar test) was added to the supernatant. The mixture was allowed to stand at room temperature for 35 minutes and the absorbance at 420 nm is measured. The percent inhibition is calculated according to the following formula: [formula] wherein C stands for the absorbance of the control, T stands for the absorbance of the test sample, B' stands for the absorbance of the blank (I), and B stands for the absorbance of the blank (II).
The percent inhibition is also determined in respect of dilutions, and the concentration (IC50) providing 50% inhibition is found. In Table 4, the percent inhibition obtained at a parenthesized concentration is shown when the inhibition is low.

Row | Compound | inhibition in vivo at 5 mg/kg (blood sugar levels) [%] | other results
1 | CCCN1C[C@H](O)[C@@H](O)[C@H](O[C@H]2O[C@H](CO)[C@@H](O)[C@H](O)[C@H]2O)[C@H]1CO [4-(α-D-glucosyl)-N-propylmoranoline] | 24 | 
2 | CN1C[C@H](O)[C@@H](O)[C@H](O[C@H]2O[C@H](CO)[C@@H](O[C@H]3O[C@H](CO)[C@@H](O[C@H]4O[C@H](CO)[C@@H](O[C@H]5O[C@H](CO)[C@@H](O)[C@H](O)[C@H]5O)[C@H](O)[C@H]4O)[C@H](O)[C@H]3O)[C@H](O)[C@H]2O)[C@H]1CO [4-(α-D-maltotetraosyl)-N-methylmoranoline] | 25 | 
3 | OC[C@H]1NC[C@H](O)[C@@H](O)[C@@H]1O[C@H]1O[C@H](CO)[C@@H](O)[C@H](O)[C@H]1O [4-(α-D-glucosyl)-moranoline] | 44 | decomposition by α-1,4-glucanglucohydrolase (in words) ([1]; qualitative statement, FIG. 4): hardly decomposed; inhibition at 200 µg/mL [2]: 15%
4 | OC[C@H]1NC[C@H](O)[C@@H](O)[C@@H]1O[C@H]1O[C@H](CO)[C@@H](O[C@H]2O[C@H](CO)[C@@H](O)[C@H](O)[C@H]2O)[C@H](O)[C@H]1O [4-(α-D-maltosyl)-moranoline] | 35 | inhibition at 200 µg/mL [2]: 0%
5 | OC[C@H]1NC[C@H](O)[C@@H](O)[C@@H]1O[C@H]1O[C@H](CO)[C@@H](O[C@H]2O[C@H](CO)[C@@H](O[C@H]3O[C@H](CO)[C@@H](O)[C@H](O)[C@H]3O)[C@H](O)[C@H]2O)[C@H](O)[C@H]1O [4-(α-D-maltotriosyl)-moranoline] | 31 | inhibition at 200 µg/mL [2]: 0%
6 | CN1C[C@H](O)[C@@H](O)[C@H](O[C@H]2O[C@H](CO)[C@@H](O[C@H]3O[C@H](CO)[C@@H](O[C@H]4O[C@H](CO)[C@@H](O[C@H]5O[C@H](CO)[C@@H](O[C@H]6O[C@H](CO)[C@@H](O)[C@H](O)[C@H]6O)[C@H](O)[C@H]5O)[C@H](O)[C@H]4O)[C@H](O)[C@H]3O)[C@H](O)[C@H]2O)[C@H]1CO [4-(α-D-maltopentaosyl)-N-methylmoranoline] | 23 | 
7 | CCN1C[C@H](O)[C@@H](O)[C@H](O[C@H]2O[C@H](CO)[C@@H](O[C@H]3O[C@H](CO)[C@@H](O)[C@H](O)[C@H]3O)[C@H](O)[C@H]2O)[C@H]1CO [4-(α-D-maltosyl)-N-ethylmoranoline] | 35 | 
8 | OC[C@H]1NC[C@H](O)[C@@H](O)[C@@H]1O[C@H]1O[C@H](CO)[C@@H](O[C@H]2O[C@H](CO)[C@@H](O[C@H]3O[C@H](CO)[C@@H](O[C@H]4O[C@H](CO)[C@@H](O)[C@H](O)[C@H]4O)[C@H](O)[C@H]3O)[C@H](O)[C@H]2O)[C@H](O)[C@H]1O [4-(α-D-maltotetraosyl)-moranoline] | 56 | inhibition at 200 µg/mL [2]: 0%
9 | CCN1C[C@H](O)[C@@H](O)[C@H](O[C@H]2O[C@H](CO)[C@@H](O)[C@H](O)[C@H]2O)[C@H]1CO [4-(α-D-glucosyl)-N-ethylmoranoline] | 22 | inhibition at 800 µg/mL ([2]; at 800 μg/ml (printed >800 μg/ml)): 38%
10 | CN1C[C@H](O)[C@@H](O)[C@H](O[C@H]2O[C@H](CO)[C@@H](O[C@H]3O[C@H](CO)[C@@H](O)[C@H](O)[C@H]3O)[C@H](O)[C@H]2O)[C@H]1CO [4-(α-D-maltosyl)-N-methylmoranoline] | 62 | 
11 | OC[C@H]1O[C@H](O[C@H]2[C@H](O)[C@@H](O)C(O)O[C@@H]2CO)[C@H](O)[C@@H](O)[C@@H]1O (stereo partly shown) [maltose, reference compound] |  | decomposition by α-1,4-glucanglucohydrolase (in words) ([1]; in 1 hour, 40° C., mixed with Dowex 50W×2 (H+)): decomposed substantially completely; decomposition by α-1,4-glucanglucohydrolase (in words) ([1]; qualitative statement, FIG. 4): promptly decomposed to glucose
12 | OC[C@H]1NC[C@H](O)[C@@H](O)[C@@H]1O [moranoline, Moranoline] | 19 | 
13 | CN1C[C@H](O)[C@@H](O)[C@H](O[C@H]2O[C@H](CO)[C@@H](O[C@H]3O[C@H](CO)[C@@H](O[C@H]4O[C@H](CO)[C@@H](O)[C@H](O)[C@H]4O)[C@H](O)[C@H]3O)[C@H](O)[C@H]2O)[C@H]1CO [4-(α-D-maltotriosyl)-N-methylmoranoline] | 29 | 
14 | CN1C[C@H](O)[C@@H](O)[C@H](O[C@H]2O[C@H](CO)[C@@H](O)[C@H](O)[C@H]2O)[C@H]1CO [4-(α-D-glucosyl)-N-methylmoranoline] | 56 | decomposition by α-1,4-glucanglucohydrolase (in words) ([1]; qualitative statement, FIG. 4): extremely small
